Assays:
Conditions in all cases: lowest tested rate giving 80% or greater inhibition, approx. 14 days after planting and treating, greenhouse
[1] = system: ABUTH; test: Pre-emergence herbicidal activity on ABUTH (velvetleaf); type: in vivo, Abutilon theophrasti
Source text: (§1) All such uses, and the biological activity enabling such uses, are embraced by the term “herbicidal” herein. Tables 15 and 16 summarize results of tests conducted as described below to determine the pre-emergence herbicidal activity, in the form of a GR80 value, of illustrative compounds of this invention. […] Where herbicidal activity was evident but 80% inhibition was not achieved at the highest rate tested (typically 1000 g/ha), an asterisk (*) is shown in the following tables. Herbicidal activity evident in the form of symptoms of phytotoxicity, in the absence of at least 80% inhibition at any rate, is indicated in the tables by “phyto”. A blank cell in the following tables indicates no herbicidal or phytotoxic response at any rate tested.
(§2) The pre-emergence tests were conducted by the following procedure. Topsoil was sieved to pass through a 1.27 cm screen. Fertilizer was added to the topsoil and the mixture was then sterilized by heating. The topsoil mixture was placed in a pot and compacted to a depth of 1.0 to 1.25 cm from the top of the pot. Seeds of each of several monocotyledonous and dicotyledonous annual plant species were placed on top of the soil. Additional soil was subsequently placed over the seeds to level-fill the pot. A known amount of each test compound dissolved or suspended in an appropriate organic solvent was diluted with a 50:50 mix of acetone and water and applied to the surface of the soil. After treatment the plants were placed in a greenhouse with a 30/21° C. day/night temperature regime where they received 0.64 cm of overhead irrigation. All subsequent watering consisted of a light overhead mist and/or subirrigation as needed for germination and growth.
(§3) Approximately 14 days after planting and treating, the plants were observed and herbicidal efficacy recorded as percent inhibition by comparison with untreated plants.
(§4) The plant species usually regarded as weeds which were utilized in the tests are identified in the tables below according to the following legend, in which “d” indicates a dicotyledonous species and “m” a monocotyledonous species. All monocotyledonous species included in the tests herein are grasses.

[2] = system: SOLNI; test: Pre-emergence herbicidal activity on SOLNI (black nightshade); type: in vivo, Solanum nigrum
Source text: as §1, §2, §3, §4

[3] = system: AMARE; test: Pre-emergence herbicidal activity on AMARE (redroot pigweed); type: in vivo, Amaranthus retroflexus
Source text: as §1, §2, §3, §4

[4] = system: DATST; test: Pre-emergence herbicidal activity on DATST (jimsonweed); type: in vivo, Datura stramonium
Source text: as §1, §2, §3, §4

[5] = system: CHEAL; test: Pre-emergence herbicidal activity on CHEAL (common lambsquarters); type: in vivo, Chenopodium album
Source text: as §1, §2, §3, §4

[6] = system: CONAR; test: Pre-emergence herbicidal activity on CONAR (field bindweed); type: in vivo, Convolvulus arvensis
Source text: as §1, §2, §3, §4

[7] = system: POROL; test: Pre-emergence herbicidal activity on POROL (common purslane); type: in vivo, Portulaca oleracea
Source text: as §1, §2, §3, §4

[8] = system: ECHCG; test: Pre-emergence herbicidal activity on ECHCG (barnyardgrass); type: in vivo, Echinochloa crus-galli
Source text: as §1, §2, §3, §4

[9] = system: PANMI; test: Pre-emergence herbicidal activity on PANMI (wild proso millet); type: in vivo, Panicum miliaceum
Source text: as §1, §2, §3, §4

[10] = system: SORHA; test: Pre-emergence herbicidal activity on SORHA (johnsongrass, seedling); type: in vivo, Sorghum halepense
Source text: as §1, §2, §3, §4

[11] = system: SETFA; test: Pre-emergence herbicidal activity on SETFA (giant foxtail); type: in vivo, Setaria faberi
Source text: as §1, §2, §3, §4

[12] = system: PANDI; test: Pre-emergence herbicidal activity on PANDI (fall panicum); type: in vivo, Panicum dichotomiflorum
Source text: as §1, §2, §3, §4

[13] = system: SORVU; test: Pre-emergence herbicidal activity on SORVU (shattercane); type: in vivo, Sorghum vulgare
Source text: as §1, §2, §3, §4

[14] = system: BRAPP; test: Pre-emergence herbicidal activity on BRAPP (broadleaf signalgrass); type: in vivo, Brachiaria platyphylla
Source text: as §1, §2, §3, §4

[15] = system: CIRAR; test: Pre-emergence herbicidal activity on CIRAR (canada thistle, seedling); type: in vivo, Cirsium arvense
Source text: as §1, §2, §3, §4

[16] = system: DIGSA; test: Pre-emergence herbicidal activity on DIGSA (large crabgrass); type: in vivo, Digitaria sanguinalis
Source text: as §1, §2, §3, §4

COc1c(F)cccc1C(=O)NC(C)CNC(=O)c1cccc(C(F)(F)F)c1 (centres unmarked) [Example 40]
Pre-emergence activity (GR80) on ABUTH [1]: phyto
Pre-emergence activity (GR80) on SOLNI [2]: phyto
Pre-emergence activity (GR80) on AMARE [3]: 750 g/ha
Pre-emergence activity (GR80) on DATST [4]: 1000 g/ha
Pre-emergence activity (GR80) on CHEAL [5]: 750 g/ha
Pre-emergence activity (GR80) on CONAR [6]: phyto
Pre-emergence activity (GR80) on PORAL [7]: * (Where herbicidal activity was evident but 80% inhibition was not achieved at the highest rate tested (typically 1000 g/ha), an asterisk (*) is shown)
Pre-emergence activity (GR80) on ECHCG [8]: phyto
Pre-emergence activity (GR80) on PANMI [9]: phyto
Pre-emergence activity (GR80) on SORHA [10]: phyto
Pre-emergence activity (GR80) on SETFA [11]: 1000 g/ha
Pre-emergence activity (GR80) on PANDI [12]: 750 g/ha
Pre-emergence activity (GR80) on SORVU [13]: phyto
Pre-emergence activity (GR80) on BRAPP [14]: * (Where herbicidal activity was evident but 80% inhibition was not achieved at the highest rate tested (typically 1000 g/ha), an asterisk (*) is shown)

CC(CNC(=O)c1cccc(C(F)(F)F)c1)NC(=O)c1cccc(Br)c1F (centres unmarked) [Example 56]
Pre-emergence activity (GR80) on ABUTH [1]: 500 g/ha
Pre-emergence activity (GR80) on SOLNI [2]: 64 g/ha
Pre-emergence activity (GR80) on AMARE [3]: 64 g/ha
Pre-emergence activity (GR80) on DATST [4]: 250 g/ha
Pre-emergence activity (GR80) on CHEAL [5]: 32 g/ha
Pre-emergence activity (GR80) on CONAR [6]: * (Where herbicidal activity was evident but 80% inhibition was not achieved at the highest rate tested (typically 1000 g/ha), an asterisk (*) is shown)
Pre-emergence activity (GR80) on PORAL [7]: 32 g/ha
Pre-emergence activity (GR80) on CIRAR [15]: 32 g/ha
Pre-emergence activity (GR80) on ECHCG [8]: 750 g/ha
Pre-emergence activity (GR80) on PANMI [9]: 125 g/ha
Pre-emergence activity (GR80) on SORHA [10]: 750 g/ha
Pre-emergence activity (GR80) on SETFA [11]: 125 g/ha
Pre-emergence activity (GR80) on PANDI [12]: 250 g/ha
Pre-emergence activity (GR80) on BRAPP [14]: 500 g/ha
Pre-emergence activity (GR80) on DIGSA [16]: 64 g/ha

Cc1c(Br)cccc1C(=O)NC(C)CNC(=O)c1cccc(C(F)(F)F)c1 (centres unmarked) [Example 57]
Pre-emergence activity (GR80) on ABUTH [1]: 750 g/ha
Pre-emergence activity (GR80) on SOLNI [2]: 250 g/ha
Pre-emergence activity (GR80) on AMARE [3]: 64 g/ha
Pre-emergence activity (GR80) on DATST [4]: 125 g/ha
Pre-emergence activity (GR80) on CHEAL [5]: 32 g/ha
Pre-emergence activity (GR80) on CONAR [6]: 250 g/ha
Pre-emergence activity (GR80) on PORAL [7]: 125 g/ha
Pre-emergence activity (GR80) on CIRAR [15]: 500 g/ha
Pre-emergence activity (GR80) on ECHCG [8]: * (Where herbicidal activity was evident but 80% inhibition was not achieved at the highest rate tested (typically 1000 g/ha), an asterisk (*) is shown)
Pre-emergence activity (GR80) on PANMI [9]: 750 g/ha
Pre-emergence activity (GR80) on SORHA [10]: * (Where herbicidal activity was evident but 80% inhibition was not achieved at the highest rate tested (typically 1000 g/ha), an asterisk (*) is shown)
Pre-emergence activity (GR80) on SETFA [11]: 250 g/ha
Pre-emergence activity (GR80) on PANDI [12]: 125 g/ha
Pre-emergence activity (GR80) on BRAPP [14]: 750 g/ha
Pre-emergence activity (GR80) on DIGSA [16]: 500 g/ha

Cc1cccc(C(=O)NC(C)CNC(=O)c2cccc(C(F)(F)F)c2)c1Br (centres unmarked) [Example 66]
Pre-emergence activity (GR80) on ABUTH [1]: 250 g/ha
Pre-emergence activity (GR80) on SOLNI [2]: 750 g/ha
Pre-emergence activity (GR80) on AMARE [3]: 250 g/ha
Pre-emergence activity (GR80) on DATST [4]: 500 g/ha
Pre-emergence activity (GR80) on CHEAL [5]: 125 g/ha
Pre-emergence activity (GR80) on CONAR [6]: 250 g/ha
Pre-emergence activity (GR80) on PORAL [7]: 500 g/ha
Pre-emergence activity (GR80) on CIRAR [15]: 500 g/ha
Pre-emergence activity (GR80) on ECHCG [8]: 750 g/ha
Pre-emergence activity (GR80) on PANMI [9]: 750 g/ha
Pre-emergence activity (GR80) on SORHA [10]: * (Where herbicidal activity was evident but 80% inhibition was not achieved at the highest rate tested (typically 1000 g/ha), an asterisk (*) is shown)
Pre-emergence activity (GR80) on SETFA [11]: 500 g/ha
Pre-emergence activity (GR80) on PANDI [12]: 500 g/ha
Pre-emergence activity (GR80) on BRAPP [14]: 1000 g/ha
Pre-emergence activity (GR80) on DIGSA [16]: 750 g/ha

CC(CNC(=O)c1cccc(C(F)(F)F)c1)NC(=O)c1cccc(SC(F)(F)F)c1 (centres unmarked) [Example 73]
Pre-emergence activity (GR80) on ABUTH [1]: phyto
Pre-emergence activity (GR80) on SOLNI [2]: 1000 g/ha
Pre-emergence activity (GR80) on AMARE [3]: 250 g/ha
Pre-emergence activity (GR80) on DATST [4]: phyto
Pre-emergence activity (GR80) on CHEAL [5]: 750 g/ha
Pre-emergence activity (GR80) on CONAR [6]: phyto
Pre-emergence activity (GR80) on PORAL [7]: 750 g/ha
Pre-emergence activity (GR80) on CIRAR [15]: phyto
Pre-emergence activity (GR80) on ECHCG [8]: phyto
Pre-emergence activity (GR80) on PANMI [9]: phyto
Pre-emergence activity (GR80) on SORHA [10]: phyto
Pre-emergence activity (GR80) on SETFA [11]: phyto
Pre-emergence activity (GR80) on PANDI [12]: * (Where herbicidal activity was evident but 80% inhibition was not achieved at the highest rate tested (typically 1000 g/ha), an asterisk (*) is shown)
Pre-emergence activity (GR80) on BRAPP [14]: phyto
Pre-emergence activity (GR80) on DIGSA [16]: phyto

CC(CNC(=O)c1cccc(C(F)(F)F)c1)NC(=O)c1cccc(OC(F)(F)F)c1 (centres unmarked) [Example 72]
Pre-emergence activity (GR80) on ABUTH [1]: 1000 g/ha
Pre-emergence activity (GR80) on AMARE [3]: 125 g/ha
Pre-emergence activity (GR80) on DATST [4]: 1000 g/ha
Pre-emergence activity (GR80) on CHEAL [5]: 500 g/ha
Pre-emergence activity (GR80) on CONAR [6]: * (Where herbicidal activity was evident but 80% inhibition was not achieved at the highest rate tested (typically 1000 g/ha), an asterisk (*) is shown)
Pre-emergence activity (GR80) on PORAL [7]: 250 g/ha
Pre-emergence activity (GR80) on CIRAR [15]: 500 g/ha
Pre-emergence activity (GR80) on ECHCG [8]: phyto
Pre-emergence activity (GR80) on PANMI [9]: phyto
Pre-emergence activity (GR80) on SORHA [10]: * (Where herbicidal activity was evident but 80% inhibition was not achieved at the highest rate tested (typically 1000 g/ha), an asterisk (*) is shown)
Pre-emergence activity (GR80) on SETFA [11]: 500 g/ha
Pre-emergence activity (GR80) on PANDI [12]: 500 g/ha
Pre-emergence activity (GR80) on SORVU [13]: phyto
Pre-emergence activity (GR80) on BRAPP [14]: 1000 g/ha
Pre-emergence activity (GR80) on DIGSA [16]: 250 g/ha

CC(CNC(=O)c1cccc(C(F)(F)F)c1)NC(=O)c1cccc(F)c1Cl (centres unmarked) [Example 37]
Pre-emergence activity (GR80) on ABUTH [1]: 250 g/ha
Pre-emergence activity (GR80) on SOLNI [2]: 250 g/ha
Pre-emergence activity (GR80) on AMARE [3]: 64 g/ha
Pre-emergence activity (GR80) on DATST [4]: 250 g/ha
Pre-emergence activity (GR80) on CHEAL [5]: 125 g/ha
Pre-emergence activity (GR80) on CONAR [6]: 250 g/ha
Pre-emergence activity (GR80) on PORAL [7]: 64 g/ha
Pre-emergence activity (GR80) on CIRAR [15]: 250 g/ha
Pre-emergence activity (GR80) on ECHCG [8]: 1000 g/ha
Pre-emergence activity (GR80) on PANMI [9]: 500 g/ha
Pre-emergence activity (GR80) on SORHA [10]: 1000 g/ha
Pre-emergence activity (GR80) on SETFA [11]: 250 g/ha
Pre-emergence activity (GR80) on PANDI [12]: 250 g/ha
Pre-emergence activity (GR80) on BRAPP [14]: 500 g/ha
Pre-emergence activity (GR80) on DIGSA [16]: 250 g/ha

— patent US20020052295A1, “Diacyl derivatives of propylene diamine having herbicidal activity” (priority 1999, published 2002)
